Test results from patent US8557298B2, “Medicaments for chemotherapeutic treatment of disease” (Provectus Pharmatech, Inc., priority 1998, dated 2013).

Experiments:
[1] = Partition coefficient Kp (n-octanol / phosphate buffered saline); type: physicochemical; details: n-octanol vs phosphate buffered saline, PBS, pH = 7.4
Procedure: For example, to a first approximation, an agent's potential for tissue accumulation can be estimated based on the partition coefficient, Kp. This in vitro parameter is purported to have predictive value relating to in vivo agent delivery at the cellular level. […] Kp is determined by measuring the ratio of equilibrium concentrations of an agent in a lipophilic phase (n-octanol) contacted with an aqueous phase (phosphate buffered saline, PBS, pH=7.4).

[2] = Toxicology data (LD50), murine administration; type: in vivo; details: for LD50 p.o.: murine oral (p.o.) administration
Staphylococcus aureus = type: cell-based
Procedure: The inventors tested this hypothesis by evaluating the chemotherapeutic properties of Rose Bengal and Erythrosin B on cultures of the bacterium Staphylococcus aureus. […] In both illustrations, test cultures were exposed to the indicated agents at the indicated concentrations for the indicated times; cytotoxicity was subsequently estimated by serial dilution (10×dilution per step) of the treated cell cultures into 96-well plates containing fresh culture media; these samples were then incubated under standard conditions. Viability (e.g., Logs of Growth) for each test culture was then estimated by counting the number of dilution steps resulting in positive cell growth. Cytotoxicity upon exposure to a particular agent is thereby estimated by the reduction in viability relative to unexposed (e.g., control) cultures.

various murine tumors = details: within 24 hours
[3] = Tissue pharmacokinetics of Rose Bengal after intraperitoneal injection into tumor-bearing nude mice; type: in vivo
Procedure: Tissue samples (liver, abdominal wall, and tumor) were immediately obtained from the sacrificed mice, homogenized, centrifuged for 10 minutes at 1520×g, and the resulting supernatant collected and analyzed fluorimetrically. […] At the same time, persistent accumulation occurs in tumor tissue, with greater than 50% of maximum measured agent concentration maintained in such tissues for periods in excess of 24 hours.

[4] = test system: BNL/SV40 liver cell tumor; assay: Intratumoral/peritumoral injection of 10% Rose Bengal into BNL/SV40 liver cell tumors in nude mice; type: in vivo, nude mice
[5] = test system: recurrent aggressive sarcoma tumor; assay: Intratumoral injection of 10% Rose Bengal into naturally-occurring sarcoma in a dog; type: in vivo
[6] = Systemic administration of Rose Bengal to obese laboratory mice, tissue accumulation; type: in vivo; details: aqueous solution, i.p. or p.o.
Description: For example, Rose Bengal's relatively large partition coefficient is indicative of a preference for accumulation in lipophilic tissue, such as cutaneous lipocytes.

[7] = murine intravenous (i.v.) administration

Structure (SMILES)	Partition coefficient, Kp [1]	LD50 i.v. [2, 7] [mg/kg]	LD50 p.o. [2]	Cytotoxic effect (reduction in viability, Logs of Growth) (Staphylococcus aureus)	other results
O.O=C([O-])c1ccccc1-c1c2cc(I)c(=O)c(I)c-2oc2c(I)c([O-])c(I)cc12.[Na+].[Na+] [Erythrosin B]	1.9	370	>1,000 mg/kg	no significant chemotherapeutic response	–
CC1(C)C(/C=C/C=C/C=C/C=C2\N(CCCCS(=O)(=O)O)c3ccc4ccccc4c3C2(C)C)=[N+](CCCCS(=O)(=O)[O-])c2ccc3ccccc3c21 [Indocyanine Green, reference compound]	–	–	–	–	LD50 ([2]; mouse, in vivo, murine intravenous (i.v.) administration): 60 mg/kg; Tumor retention after i.t. administration (various murine tumors): substantively migrates out of tumors
O=C([O-])c1c(Cl)c(Cl)c(Cl)c(Cl)c1-c1c2cc(Br)c(=O)c(Br)c-2oc2c(Br)c([O-])c(Br)cc12.[Na+].[Na+] [Phloxine B]	1.1	310	310 mg/kg	–	–
CC1=C(CCC(=O)O)c2cc3[nH]c(cc4nc(cc5[nH]c(cc1n2)c(C)c5C(C)O)C(C)=C4C(C)O)c(C)c3CCC(=O)O (stereo not drawn) [Porphyrin HpIX, reference compound]	1.5	–	>1,000 mg/kg	–	–
O=C1OC2(c3cc(I)c(O)c(I)c3Oc3c2cc(I)c(O)c3I)c2c(Cl)c(Cl)c(Cl)c(Cl)c21 [Rose Bengal, 4,5,6,7-Tetrachloro-2′,4′,5′,7′-tetraiodofluorescein]	11.5	–	>1,000 mg/kg	marked chemotherapeutic response that is concentration dependent	Time for concentrations in normal tissue (abdominal wall) and liver to diminish to unmeasurable levels ([3]; i.p., 50-100 μL of 0.5% Rose Bengal in saline, tumor-bearing nude mice): ≤ 24 h; Share of maximum measured agent concentration maintained in tumor tissue ([3]; tumor tissue, periods in excess of 24 hours after i.p. injection): greater than 50%; Effect on tumor growth ([4]; i.t. and p.t. injection of 10% Rose Bengal, over a period of several weeks): stasis, with no significant change in tumor volume; Time to clearance from normal tissue (tumor tissue remained stained) ([4]; mouse, in vivo): ≤ 7 days; Effect on normal tissue and adjacent tumor tissue ([4]; peritumoral injection alone): no significant effect on normal tissue, nor on the adjacent tumor tissue; Retention in normal tissue ([4]; peritumoral injection alone, after 24 hours): no detectable retention in normal tissue; Tumor response at follow-up examination ([5]; after 19 days): further measurable decrease in tumor size; Tumor response at follow-up examination ([5]; approximately 5 cc of 10% solution into approximately 20 cc tumor, after five days): measurable decrease in tumor density along with significant edema and apparent necrosis of large sections of the tumor; Side-effects in healthy tissue surrounding the tumor ([5]; intratumoral injection, dog): no significant side-effects; Tissue accumulation after systemic administration [6]: highly selective accumulation of said agent in certain tissues
